From ChEMBL document CHEMBL1138642, “In vitro advanced antimycobacterial screening of cobalt(II) and copper(II) complexes of fluorinated isonicotinoylhydrazones” (2004)
≈ marks a conversion by molar mass, not a printed value.

Legend:
Format in all cases: functional
[1] = test system: Mycobacterium tuberculosis; experiment: Minimum bactericidal concentration required against Mycobacterium tuberculosis H37Rv strain was determined in monolayers of mouse bone marrow macrophages
[2] = test system: Mycobacterium tuberculosis; experiment: Effective concentration required compared to that of Minimum inhibition concentration required against Mycobacterium tuberculosis H37Rv strain was determined; Range is 0.6-1.2
[3] = test system: Mycobacterium tuberculosis; experiment: Effective concentration required to reduce CFU of Mycobacterium tuberculosis Erdman (ATCC 35801) strain was determined in monolayers of mouse bone marrow macrophages
[4] = test system: Mycobacterium tuberculosis; experiment: Effective concentration required to reduce CFU of Mycobacterium tuberculosis Erdman (ATCC 35801) strain was determined in monolayers of mouse bone marrow macrophages; […]
[5] = test system: Mycobacterium tuberculosis; experiment: Effective concentration required to reduce CFU of Mycobacterium tuberculosis Erdman (ATCC 35801) strain was determined in monolayers of mouse bone marrow macrophages; Range is 0.5-1.5

SMILES	MBC [1]	EC90/MIC [2]	EC90 [3]	EC99 [3]	EC90 [4]	EC99 [5]
NNC(=O)c1ccncc1 [ISONIAZID]	0.1 µg/mL (≈ 0.729 µM)	1.2	0.03 µg/mL (≈ 0.219 µM)	0.42 µg/mL	–	–
CO[C@H]1/C=C/O[C@@]2(C)Oc3c(C)c(O)c4c(O)c(c(/C=N/N5CCN(C)CC5)c(O)c4c3C2=O)NC(=O)/C(C)=C\C=C\[C@H](C)[C@H](O)[C@@H](C)[C@@H](O)[C@@H](C)[C@H](OC(C)=O)[C@@H]1C [RIFAMPIN]	–	–	–	–	0.1 µg/mL (≈ 0.122 µM)	1.5 µg/mL
